From US12281125B2, “Rapamycin derivatives” (NOVARTIS AG, priority 2018, dated 2025) come the findings set out here.

Structures are written as SMILES.

Test [1] deals with mTORc1 signaling, pS6 (Ser240/244) in MEF TSCl−/− cells. Description: Cell-based assay for rapalog potency (pS6) in MEF TSCl−/− cells. As to conditions: Mus musculus, 2 hours treatment, average from multiple assays. As for the experimental part: Rapalog potency was determined using MEF TSCl−/− cell based assay. MEF TSCl−/− cells are Mouse Embryonic Fibroblasts deficient in Tuberous sclerosis protein—TSCl, which negatively regulates mTORc1 signaling and thus display constitutive mTORc1 activation, resulting in phosphorylation (activation) of downstream molecules. This cell-based assay is used to measure inhibition (de-phosphorylation) of S6 and 4EBP1 by rapalogs or other mTOR inhibitors.
MEF TSCl−/− cells were plated on Poly-D-lysine coated 384 well Griener clear bottom plates and incubated overnight at 37° C., 5% CO2. On the following day, cells were washed 8 times with “Hard starve” solution (1 L DPBS+1 g D-(+) glucose+10 ml of 7.5% Sodium Bicarbonate+20 ml of 1M HEPES) and incubated for further 2 hours in the same solution. Cells were next treated with compounds with decreasing concentrations (8 points at 3.16 fold dilutions) and incubated for 2 hours at 37° C., 5% CO2. Cells were fixed with 4% paraformaldehyde for 30 min and washed 5 times with TBS-EDTA followed by immuno-staining with fluorescent tag labeled antibodies for pS6 (Ser240/244) (Cell Signaling #9468) and p4EBP1 (Thr 37/46) (Cell Signaling #5123). Nuclei were visualized with Hoechst (ThermoFisher Scientific #H3570) staining. Cells were imaged (InCell 600) using respective fluorescence channels and the potency of mTOR inhibitors was defined by pS6 IC50 (nM).
In vitro potency of mTOR inhibitors was defined by pS6 IC50 (nM) in MEF TSCl−/− cells.
IC50 values are calculated as the average from multiple assays.

Another test addresses T1, FKBP12 (Homo sapiens, UniProt P62942).
T1 construct: made in house; host or cells: E. coli
In words: SPR assay, binding affinity to FKBP12. The conditions noted are these: equilibrium dissociation constant. The text has this:
(§1) N-terminal avi-his6-tagged FKBP fusion proteins were expressed in E. coli and purified with nickel chromatography using standard procedures. Biotinylated his-avi-FKBPs were immobilized on a streptavidin chip using a Biacore 8K (GE Healthcare). […] The single-cycle kinetics data were fit to a 1:1 binding model to measure the association rate ka (1/Ms), the dissociation rate kd (1/s) and the affinity KD (M). […] The single-cycle kinetics data was fit to a 1:1 binding model to measure the association rate ka (1/Ms), the dissociation rate kd (1/s) and the apparent affinity KD (M) for ternary complex formation. The equilibrium dissociation constants (KD) to FKBP12, FKBP51, and FKBP52 are shown below in Table 6.

A further test addresses T2, FKBP51 (Homo sapiens, UniProt Q13451).
T2 construct: made in house; host or cells: E. coli
T2 sequence (Q13451 1-457): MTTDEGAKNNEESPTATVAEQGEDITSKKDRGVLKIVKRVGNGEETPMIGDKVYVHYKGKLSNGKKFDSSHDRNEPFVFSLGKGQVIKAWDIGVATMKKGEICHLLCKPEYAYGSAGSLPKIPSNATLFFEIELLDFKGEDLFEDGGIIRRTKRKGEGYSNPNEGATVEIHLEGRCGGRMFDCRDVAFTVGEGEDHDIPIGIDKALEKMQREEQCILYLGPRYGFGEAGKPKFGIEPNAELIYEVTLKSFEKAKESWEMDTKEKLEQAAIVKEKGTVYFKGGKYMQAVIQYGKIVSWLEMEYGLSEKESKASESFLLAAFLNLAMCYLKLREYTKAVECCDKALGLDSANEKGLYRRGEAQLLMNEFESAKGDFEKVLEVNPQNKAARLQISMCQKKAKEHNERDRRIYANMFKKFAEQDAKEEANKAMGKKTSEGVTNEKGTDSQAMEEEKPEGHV
Description: SPR assay, binding affinity to FKBP51. The conditions noted are these: equilibrium dissociation constant.
Excerpt: as §1

The next test concerns the target T3, FKBP52 (Homo sapiens, UniProt Q02790).
T3 construct: made in house; host or cells: E. coli
T3 sequence (Q02790 1-459): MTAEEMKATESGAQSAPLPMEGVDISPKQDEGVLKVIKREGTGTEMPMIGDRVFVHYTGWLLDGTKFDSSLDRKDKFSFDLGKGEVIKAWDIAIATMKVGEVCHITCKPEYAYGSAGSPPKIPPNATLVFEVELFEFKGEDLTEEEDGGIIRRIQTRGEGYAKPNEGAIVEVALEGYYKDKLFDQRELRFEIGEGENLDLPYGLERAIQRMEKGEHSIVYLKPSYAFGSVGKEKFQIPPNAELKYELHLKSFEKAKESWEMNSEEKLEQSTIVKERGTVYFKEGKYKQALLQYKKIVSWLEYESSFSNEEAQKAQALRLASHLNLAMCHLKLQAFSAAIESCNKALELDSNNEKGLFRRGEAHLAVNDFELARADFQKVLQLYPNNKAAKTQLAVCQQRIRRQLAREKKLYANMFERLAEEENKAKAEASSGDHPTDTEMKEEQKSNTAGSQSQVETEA
In words: SPR assay, binding affinity to FKBP52. The conditions noted are these: equilibrium dissociation constant. As for the experimental part: N-terminal avi-his6-tagged FKBP fusion proteins were expressed in E. coli and purified with nickel chromatography using standard procedures. Biotinylated his-avi-FKBPs were immobilized on a streptavidin chip using a Biacore 8K (GE Healthcare). To determine the kinetics-affinity of the rapalogs for FKBPs, rapalogs were diluted in DMSO to 50× working concentration. Next, 3.1 uLs of each rapalog solution was added to 150 uLs of buffer (50 mM Tris pH 7.5/150 mM NaCl/0.01% Tween 20/1 mM DTT) in a 384 deep well plate (greiner bio-one/78127) and mixed using a Biomek FX. The rapalog solution gradients (6 concentrations/2 fold dilutions, 3.1-100 nM or 31-1000 nM or 310-10000 nM) were then injected at 45 uL/min for 120 seconds: contact time and dissociation time was 1800 seconds in running buffer (50 mM Tris pH 7.5/150 mM NaCl/0.01% Tween 20/1 mM DTT/2% DMSO). The single-cycle kinetics data were fit to a 1:1 binding model to measure the association rate ka (1/Ms), the dissociation rate kd (1/s) and the affinity KD (M). […] 3.1 uLs of the 500 μM rapalog solutions were added to 150 uLs of the mTOR samples in a 384 deep well plate (greiner bio-one/78127) and mixed using a Biomek FX. The mTOR solution gradients were then injected at 45 uL/min for 120 seconds: contact time and dissociation time was 1800 seconds in running buffer (50 mM Tris pH 7.5/150 mM NaCl/0.01% Tween 20/1 mM DTT/2% DMSO). The single-cycle kinetics data was fit to a 1:1 binding model to measure the association rate ka (1/Ms), the dissociation rate kd (1/s) and the apparent affinity KD (M) for ternary complex formation.
The equilibrium dissociation constants (KD) to FKBP12, FKBP51, and FKBP52 are shown below in Table 6.

T1 sequence (P62942 whole entry): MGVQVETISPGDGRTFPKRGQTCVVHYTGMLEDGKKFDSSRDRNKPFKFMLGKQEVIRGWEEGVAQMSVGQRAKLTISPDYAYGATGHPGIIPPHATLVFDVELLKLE

As for `CO[C@@H]1C[C@H](C[C@@H](C)[C@@H]2CC[C@H](C)/C=C(\C)[C@@H](O)[C@@H](OC)C(=O)[C@H](C)C[C@H](C)/C=C/C=C/C=C(\C)C(N(C)S(C)(=O)=O)C[C@@H]3CC[C@@H](C)[C@@](O)(O3)C(=O)C(=O)N3CCCC[C@H]3C(=O)O2)CC[C@H]1O` (single isomer, unassigned) [Compound 42], the midpoint of inhibition in test [1], the IC50, lay at 0.3 nM. The Kd at FKBP12 was 6.5 nM; on FKBP51 it was 1230 nM; at FKBP52, 1380 nM.
`CO[C@@H]1C[C@H](C[C@@H](C)[C@@H]2CC[C@H](C)/C=C(\C)[C@@H](O)[C@@H](OC)C(=O)[C@H](C)C[C@H](C)/C=C/C=C/C=C(\C)[C@H](NS(C)(=O)=O)C[C@@H]3CC[C@@H](C)[C@@](O)(O3)C(=O)C(=O)N3CCCC[C@H]3C(=O)O2)CC[C@H]1O` [Compound 1] gave an IC50 in test [1] of 0.55 nM. Further, the Kd at FKBP12 was determined as 0.061 nM; on FKBP51 it was 11 nM; at FKBP52 it was 9.8 nM.
Turning to `CCS(=O)(=O)N[C@H]1C[C@@H]2CC[C@@H](C)[C@@](O)(O2)C(=O)C(=O)N2CCCC[C@H]2C(=O)O[C@H]([C@H](C)C[C@@H]2CC[C@@H](O)[C@H](OC)C2)CC[C@H](C)/C=C(\C)[C@@H](O)[C@@H](OC)C(=O)[C@H](C)C[C@H](C)/C=C/C=C/C=C/1C` [Compound 3], in test [1], it took 0.26 nM to reach half-maximal inhibition (IC50). Also, the Kd was determined as 0.2 nM on FKBP12, 40 nM at FKBP51 and 61 nM at FKBP52.
In the case of `CCS(=O)(=O)N[C@@H]1C[C@@H]2CC[C@@H](C)[C@@](O)(O2)C(=O)C(=O)N2CCCC[C@H]2C(=O)O[C@H]([C@H](C)C[C@@H]2CC[C@@H](O)[C@H](OC)C2)CC[C@H](C)/C=C(\C)[C@@H](O)[C@@H](OC)C(=O)[C@H](C)C[C@H](C)/C=C/C=C/C=C/1C` [Compound 4], the IC50 in test [1] stood at 1.2 nM. For the same compound, the Kd amounted to 0.55 nM on FKBP12, 315 nM on FKBP51 and 256 nM at FKBP52.
In test [1], `CO[C@@H]1C[C@H](C[C@@H](C)[C@@H]2CC[C@H](C)/C=C(\C)[C@@H](O)[C@@H](OC)C(=O)[C@H](C)C[C@H](C)/C=C/C=C/C=C(\C)[C@@H](NS(=O)(=O)C3CC3)C[C@@H]3CC[C@@H](C)[C@@](O)(O3)C(=O)C(=O)N3CCCC[C@H]3C(=O)O2)CC[C@H]1O` [Compound 11] displayed an IC50 of 0.94 nM. The Kd is 0.29 nM on FKBP12, 45 nM at FKBP51 and 63 nM at FKBP52.
The corresponding values for `CO[C@@H]1C[C@H](C[C@@H](C)[C@@H]2CC[C@H](C)/C=C(\C)[C@@H](O)[C@@H](OC)C(=O)[C@H](C)C[C@H](C)/C=C/C=C/C=C(\C)[C@H](NS(=O)(=O)C3CC3)C[C@@H]3CC[C@@H](C)[C@@](O)(O3)C(=O)C(=O)N3CCCC[C@H]3C(=O)O2)CC[C@H]1O` [Compound 12] are 1.1 nM, 0.39 nM, 117 nM and 135 nM.
`CO[C@@H]1C[C@H](C[C@@H](C)[C@@H]2CC[C@H](C)/C=C(\C)[C@@H](O)[C@@H](OC)C(=O)[C@H](C)C[C@H](C)/C=C/C=C/C=C(\C)[C@H](NS(=O)(=O)CCCCl)C[C@@H]3CC[C@@H](C)[C@@](O)(O3)C(=O)C(=O)N3CCCC[C@H]3C(=O)O2)CC[C@H]1O` [Compound 18] yielded an IC50 in test [1] of 6.6 nM. In addition, the dissociation constant Kd was found to be 0.73 nM at FKBP12, 573 nM on FKBP51 and 436 nM at FKBP52.
Take `CO[C@@H]1C[C@H](C[C@@H](C)[C@@H]2CC[C@H](C)/C=C(\C)[C@@H](O)[C@@H](OC)C(=O)[C@H](C)C[C@H](C)/C=C/C=C/C=C(\C)[C@@H](NS(C)(=O)=O)C[C@@H]3CC[C@@H](C)[C@@](O)(O3)C(=O)C(=O)N3CCCC[C@H]3C(=O)O2)CC[C@H]1OP(C)(C)=O` [Compound 24]: in test [1], 0.52 nM corresponded to half-maximal inhibition (IC50). For the same compound, the Kd at FKBP12 worked out at 0.54 nM; at FKBP51, 25 nM; on FKBP52, 90 nM.
In the case of `CO[C@@H]1C[C@H](C[C@@H](C)[C@@H]2CC[C@H](C)/C=C(\C)[C@@H](O)[C@@H](OC)C(=O)[C@H](C)C[C@H](C)/C=C/C=C/C=C(\C)[C@@H](NS(C)(=O)=O)C[C@@H]3CC[C@@H](C)[C@@](O)(O3)C(=O)C(=O)N3CCCC[C@H]3C(=O)O2)CC[C@H]1OCCO` [Compound 26], half-maximal inhibition in test [1] (IC50) required 0.086 nM. For the same compound, the Kd at FKBP12 came to 0.83 nM; on FKBP51, 47 nM; on FKBP52, 80 nM.

What is called IC50 is the point on the concentration scale where inhibition reaches its midpoint. Usually Kd stands for the free concentration of one partner at which half of the binding sites on the other are occupied at equilibrium, for simple one-to-one binding.
